{"source": "ChEMBL document CHEMBL3763135", "about": "“Synthesis and evaluation of thiophene-based guanylhydrazones (iminoguanidines) efficient against panel of voriconazole-resistant fungal isolates” (Bioorg Med Chem, 2016)", "key": {"Candida albicans [1]": {"tested_on": "Candida albicans", "experiment": "Fungistatic activity against Candida albicans CA5 at sub-MIC measured after 12 hrs by time-kill dependence-based spectrophotometric analysis", "type": "functional, organism-based"}, "[2]": {"experiment": "Induction of membrane damage in PC/PS liposome assessed as calcein release at MIC after 30 mins by fluorescence-based liposome leakage assay", "type": "functional"}, "Danio rerio [3]": {"species": "Danio rerio", "experiment": "Toxicity against zebrafish embryo assessed as effect on tail tip at 50 ug/ml measured at 96 hrs post fertilization by inverted microscopic analysis", "type": "organism-based", "conditions": "in vivo"}, "Danio rerio [4]": {"species": "Danio rerio", "experiment": "Toxicity against zebrafish embryo assessed as growth retardation at 50 ug/ml measured at 96 hrs post fertilization by inverted microscopic analysis", "type": "organism-based", "conditions": "in vivo"}, "Danio rerio [5]": {"species": "Danio rerio", "experiment": "Toxicity against zebrafish embryo assessed as effect on notochord at 50 ug/ml measured at 96 hrs post fertilization by inverted microscopic analysis", "type": "organism-based", "conditions": "in vivo"}, "Danio rerio [6]": {"species": "Danio rerio", "experiment": "Toxicity against zebrafish embryo assessed as effect on eyes at 50 ug/ml measured at 96 hrs post fertilization by inverted microscopic analysis", "type": "organism-based", "conditions": "in vivo"}, "Danio rerio [7]": {"tested_on": "Danio rerio", "experiment": "Toxicity against zebrafish embryo assessed as pericardial edema at 50 ug/ml measured at 96 hrs post fertilization by inverted microscopic analysis", "type": "organism-based", "conditions": "in vivo"}, "Danio rerio [8]": {"tested_on": "Danio rerio", "experiment": "Toxicity against zebrafish embryo assessed as yolk edema at 50 ug/ml measured at 96 hrs post fertilization by inverted microscopic analysis", "type": "organism-based", "conditions": "in vivo"}, "Danio rerio [9]": {"species": "Danio rerio", "experiment": "Toxicity against zebrafish embryo assessed as effect on heart beat at 50 ug/ml measured at 96 hrs post fertilization by inverted microscopic analysis", "type": "organism-based", "conditions": "in vivo"}, "Danio rerio [10]": {"species": "Danio rerio", "experiment": "Toxicity against zebrafish embryo assessed as effect on blood circulation at 50 ug/ml measured at 96 hrs post fertilization by inverted microscopic analysis", "type": "organism-based", "conditions": "in vivo"}, "Danio rerio [11]": {"species": "Danio rerio", "experiment": "Toxicity against zebrafish embryo assessed as unhatched embryos at 50 ug/ml measured at 96 hrs post fertilization by inverted microscopic analysis", "type": "organism-based", "conditions": "in vivo"}, "Danio rerio [12]": {"species": "Danio rerio", "experiment": "Toxicity against zebrafish embryo assessed as head malformation at 50 ug/ml measured at 96 hrs post fertilization by inverted microscopic analysis", "type": "organism-based", "conditions": "in vivo"}, "Danio rerio [13]": {"species": "Danio rerio", "experiment": "Toxicity against zebrafish embryo assessed as skeletal deformities at 50 ug/ml measured at 96 hrs post fertilization by inverted microscopic analysis", "type": "organism-based", "conditions": "in vivo"}, "[14]": {"experiment": "Selectivity index, ratio of IC50 for human MRC5 cell to MIC for Candida albicans ATCC 10231"}, "Candida albicans [15]": {"tested_on": "Candida albicans", "experiment": "Induction of cell death in Candida albicans CA5 at MIC measured after 2 hrs by concavaline-FITC/PI/DAPI-staining based fluorescence microscopic analysis relative to DMSO control", "type": "functional"}}, "note": "Activity calls are given as the source filed them. The calls are words filed in the database; no cut-off is given here.", "data": [{"smiles": "Cl.Cl.N=C(N)N/N=C/c1ccc(-c2ccc(/C=N/NC(=N)N)s2)cc1", "values": [{"measurement": "Activity", "setting": "Candida albicans [1]", "value": "Active"}, {"measurement": "Activity", "setting": "[2]", "value": 8, "unit": "%"}, {"measurement": "Activity", "setting": "Danio rerio [3]", "value": 0, "unit": "%"}, {"measurement": "Activity", "setting": "Danio rerio [4]", "value": 0, "unit": "%"}, {"measurement": "Activity", "setting": "Danio rerio [5]", "value": 0, "unit": "%"}, {"measurement": "Activity", "setting": "Danio rerio [6]", "value": 0, "unit": "%"}, {"measurement": "Activity", "setting": "Danio rerio [7]", "value": 0, "unit": "%"}, {"measurement": "Activity", "setting": "Danio rerio [8]", "value": 0, "unit": "%"}, {"measurement": "Activity", "setting": "Danio rerio [9]", "value": 0, "unit": "%"}, {"measurement": "Activity", "setting": "Danio rerio [10]", "value": 0, "unit": "%"}, {"measurement": "Activity", "setting": "Danio rerio [11]", "value": 0, "unit": "%"}, {"measurement": "Activity", "setting": "Danio rerio [12]", "value": 0, "unit": "%"}, {"measurement": "Activity", "setting": "Danio rerio [13]", "value": 0, "unit": "%"}]}, {"smiles": "Cc1ccc(-c2ccc(/C=N/NC(=N)N)s2)cc1.Cl", "values": [{"measurement": "Selectivity Index", "setting": "[14]", "value": 2.7}, {"measurement": "Activity", "setting": "Candida albicans [15]", "value": "inactive"}]}]}
